Experimental data: ChEMBL document CHEMBL4742400, “Protein kinase mkk4 inhibitors for promoting liver regeneration or reducing or preventing hepatocyte death” (2019)

Assays:
Homo sapiens [1] = organism: Homo sapiens; assay: (§1) Selectivity index, ratio of inhibition of B-raf (unknown origin) to inhibition of partial length human MKK4 (S84 to D399 residues) expressed in mammalian expression system assessed as residual percent of control binding at 100 nM relative to control
Homo sapiens [2] = organism: Homo sapiens; assay: as §1, with “full length human MKK7 (M1 to R419 residues) expressed in mammalian expression system assessed as residual percent of control binding at 100 nM relative to control” for “B-raf (unknown origin)”
Homo sapiens [3] = organism: Homo sapiens; assay: as §1, with “full length human JNK1 (M1 to Q384 residues) expressed in mammalian expression system assessed as residual percent of control binding at 100 nM relative to control” for “B-raf (unknown origin)”

Compound	Selectivity ratio (Homo sapiens [1])	Selectivity ratio (Homo sapiens [2])	Selectivity ratio (Homo sapiens [3])
CCCS(=O)(=O)Nc1ccc(F)c(Cc2n[nH]c3ncc(-c4ccc(Cl)cc4)cc23)c1F	< 3	< 3	< 3
CCCS(=O)(=O)Nc1ccc(F)c(C(=O)c2n[nH]c3ncc(-c4ccccc4C)cc23)c1F	3	10	10
CCCS(=O)(=O)Nc1c(F)ccc(C(=O)c2n[nH]c3ncc(-c4ccc(C(=O)O)cc4)cc23)c1F	> 30	> 30	> 30
CCCS(=O)(=O)Nc1ccc(F)c(Sc2n[nH]c3ncc(-c4ccc(Cl)cc4)cc23)c1F	< 3	< 3	< 3
CCCCS(=O)(=O)Nc1cccc(C(=O)c2n[nH]c3ncc(-c4ccc5c(c4)OCCO5)cc23)c1F	3	3	< 3
CCCS(=O)(=O)Nc1ccc(F)c(C(=O)c2n[nH]c3ncc(-c4ccccc4)cc23)c1F	10	> 30	10
CCCS(=O)(=O)Nc1ccc(F)c(C(=O)c2n[nH]c3ncc(-c4cccc(OC)c4)cc23)c1F	3	10	10
CCCS(=O)(=O)Nc1ccc(F)c(C(=O)c2n[nH]c3ncc(-c4ccc(C(C)(C)C)cc4)cc23)c1F	< 3	< 3	< 3
CCCS(=O)(=O)Nc1ccc(F)c(C(=O)c2n[nH]c3ncc(-c4ccc(N(C)C)cc4)cc23)c1F	< 3	> 30	> 30
CCCS(=O)(=O)Nc1ccc(F)c(C(=O)c2n[nH]c3ncc(-c4ccc(S(=O)(=O)NC(C)=O)cc4)cc23)c1F	< 3	> 30	> 30
CCCS(=O)(=O)Nc1ccc(F)c(C(=O)c2n[nH]c3ncc(-c4ccc(C(F)(F)F)cc4)cc23)c1F	< 3	3	3
CCCS(=O)(=O)Nc1ccc(F)c(C(=O)c2n[nH]c3ncc(-c4ccc(C)cc4)cc23)c1F	< 3	10	10
CCCS(=O)(=O)Nc1ccc(F)c(C(=O)c2n[nH]c3ncc(-c4ccc(C(N)=O)cc4)cc23)c1F	3	> 30	> 30
CCCS(=O)(=O)Nc1ccc(F)c(C(=O)c2n[nH]c3ncc(-c4cccc(Cl)c4)cc23)c1F	< 3	< 3	< 3
CCCS(=O)(=O)Nc1ccc(F)c(C(=O)c2n[nH]c3ncc(-c4ccc([N+](=O)[O-])cc4)cc23)c1F	3	10	10
CCCS(=O)(=O)Nc1ccc(F)c(C(=O)c2n[nH]c3ncc(-c4cccc(N)c4)cc23)c1F	< 3	> 30	> 30
CCCS(=O)(=O)Nc1ccc(F)c(S(=O)(=O)c2n[nH]c3ncc(-c4ccc(Cl)cc4)cc23)c1F	< 3	< 3	< 3
O=C(c1ccc(F)c(NS(=O)(=O)Cc2ccccc2)c1F)c1n[nH]c2ncc(-c3ccncc3)cc12	> 30	> 30	> 30
CCCS(=O)(=O)Nc1ccc(F)c(C(=O)c2n[nH]c3ncc(-c4ccc(C(C)C)cc4)cc23)c1F	3	3	3
CCCS(=O)(=O)Nc1ccc(F)c(C(=O)c2n[nH]c3ncc(-c4cccc([N+](=O)[O-])c4)cc23)c1F	< 3	3	3
CCCS(=O)(=O)Nc1ccc(F)c([S+]([O-])c2n[nH]c3ncc(-c4ccc(Cl)cc4)cc23)c1F (stereo unspecified)	< 3	< 3	< 3
CCCS(=O)(=O)Nc1ccc(F)c(C(=O)c2n[nH]c3ncc(-c4ccccc4O)cc23)c1F	3	10	3
CCCS(=O)(=O)Nc1ccc(F)c(C(=O)c2n[nH]c3ncc(-c4ccccc4Cl)cc23)c1F	3	10	10
CCCS(=O)(=O)Nc1ccc(F)c(C(=O)c2n[nH]c3ncc(-c4cccc(O)c4)cc23)c1F	3	> 30	3

Compound	Selectivity ratio (Homo sapiens [1])	Selectivity ratio (Homo sapiens [2])	Selectivity ratio (Homo sapiens [3])
CCCS(=O)(=O)Nc1ccc(F)c(C(=O)c2n[nH]c3ncc(-c4ccccc4F)cc23)c1F	10	> 30	> 30
CCCS(=O)(=O)Nc1ccc(F)c(NC(=O)c2n[nH]c3ncc(-c4ccc(Cl)cc4)cc23)c1F	< 3	< 3	< 3
CCCS(=O)(=O)Nc1ccc(F)c(C(=O)c2n[nH]c3ncc(-c4ccc(-c5nnn[nH]5)cc4)cc23)c1F	3	> 30	> 30
CCCS(=O)(=O)Nc1ccc(F)c(C(=O)c2n[nH]c3ncc(-c4ccccc4OC)cc23)c1F	> 30	> 30	10
CCCS(=O)(=O)Nc1ccc(F)c(C(=O)c2n[nH]c3ncc(-c4ccccc4N)cc23)c1F	3	3	3
CCCS(=O)(=O)Nc1ccc(F)c(C(=O)c2n[nH]c3ncc(-c4cccc(N(C)C)c4)cc23)c1F	< 3	3	3
CCCS(=O)(=O)Nc1ccc(F)c(C(=O)c2n[nH]c3ncc(-c4ccc(C)c(C)c4)cc23)c1F	< 3	3	3
CCCS(=O)(=O)Nc1ccc(F)c(C(=O)c2n[nH]c3ncc(-c4ccc(C(=O)NCC(O)CO)cc4)cc23)c1F (stereo unspecified)	< 3	> 30	> 30
CCCS(=O)(=O)Nc1ccc(F)c(C(=O)c2n[nH]c3ncc(-c4cccc(F)c4)cc23)c1F	< 3	10	10
CCCS(=O)(=O)Nc1ccc(F)c(C(=O)c2n[nH]c3ncc(-c4cccc(C(F)(F)F)c4)cc23)c1F	< 3	< 3	< 3
CCCS(=O)(=O)Nc1ccc(F)c(C(=O)c2n[nH]c3ncc(-c4ccc(C(=O)O)cc4)cc23)c1F	10	> 30	> 30
CCCS(=O)(=O)Nc1ccc(F)c(C(=O)c2n[nH]c3ncc(-c4ccc(O)cc4)cc23)c1F	10	> 30	> 30
CCCS(=O)(=O)Nc1ccc(F)c(C(=O)c2n[nH]c3ncc(-c4ccc(S(C)(=O)=O)cc4)cc23)c1F	< 3	> 30	> 30
CCCS(=O)(=O)Nc1ccc(F)c(C(=O)c2n[nH]c3ncc(-c4ccc(N)cc4)cc23)c1F	10	> 30	> 30
CCCS(=O)(=O)Nc1ccc(F)c(C(=O)c2n[nH]c3ncc(-c4cccc(C)c4)cc23)c1F	< 3	3	3
CCCS(=O)(=O)Nc1ccc(F)c(C(=O)c2n[nH]c3ncc(-c4cc(Cl)cc(Cl)c4)cc23)c1F	< 3	< 3	< 3
CCCS(=O)(=O)Nc1ccc(F)c(C(=O)c2n[nH]c3ncc(-c4ccc(S(N)(=O)=O)cc4)cc23)c1F	3	> 30	> 30
CCCS(=O)(=O)Nc1ccc(F)c(C(=O)c2n[nH]c3ncc(-c4ccc(Cl)c(C(F)(F)F)c4)cc23)c1F	< 3	3	> 30
CCCS(=O)(=O)Nc1ccc(F)c(C(=O)c2n[nH]c3ncc(-c4ccc(F)cc4)cc23)c1F	10	> 30	> 30
CCCS(=O)(=O)Nc1ccc(F)c(C(=O)c2n[nH]c3ncc(-c4ccc(Cl)c(Cl)c4)cc23)c1F	< 3	< 3	10
CCCS(=O)(=O)Nc1ccc(F)c(C(=O)c2n[nH]c3ncc(-c4ccc(S(=O)(=O)NCC(O)CO)cc4)cc23)c1F (stereo unspecified)	< 3	> 30	> 30
CCCS(=O)(=O)Nc1ccc(F)c(C(=O)c2n[nH]c3ncc(-c4ccc(Cl)cc4Cl)cc23)c1F	3	3	3
CCCS(=O)(=O)Nc1ccc(F)c(C(=O)c2n[nH]c3ncc(-c4ccc(OC)cc4)cc23)c1F	< 3	10	10
